Laboratory results reported in PubChem BioAssay (NCI).
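Assay format: 96-well plates, 48-hour exposure. TGI: total growth inhibition.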

How the values were obtained:
Experiment in all cases: NCI-60 cell line screen, 48 h
UACC-62 melanoma = system: UACC-62 melanoma
SK-MEL-5 melanoma = system: SK-MEL-5 melanoma
MCF7 breast = system: MCF7 breast
SK-MEL-2 melanoma = system: SK-MEL-2 melanoma
786-0 renal = system: 786-0 renal
HCT-15 colon = system: HCT-15 colon
A498 renal = system: A498 renal
OVCAR-8 ovarian = system: OVCAR-8 ovarian
TK-10 renal = system: TK-10 renal
A549 NSCLC = system: A549 NSCLC
U251 CNS = system: U251 CNS
HCT-116 colon = system: HCT-116 colon
NCI-H460 lung = system: NCI-H460 lung
HS 578T breast = system: HS 578T breast
MDA-N = system: MDA-N
SW-620 colon = system: SW-620 colon
SK-OV-3 ovarian = system: SK-OV-3 ovarian
HOP-62 NSCLC = system: HOP-62 NSCLC
EKVX NSCLC = system: EKVX NSCLC
K-562 leukemia = system: K-562 leukemia
HL-60(TB) leukemia = system: HL-60(TB) leukemia
DU-145 prostate = system: DU-145 prostate
UO-31 renal = system: UO-31 renal
MDA-MB-231 breast = system: MDA-MB-231 breast
M14 melanoma = system: M14 melanoma
RPMI-8226 leukemia = system: RPMI-8226 leukemia
HOP-92 NSCLC = system: HOP-92 NSCLC
HCC-2998 colon = system: HCC-2998 colon
SNB-19 CNS = system: SNB-19 CNS
NCI-H522 lung = system: NCI-H522 lung
SR leukemia = system: SR leukemia
SNB-75 CNS = system: SNB-75 CNS
SF-295 CNS = system: SF-295 CNS
MALME-3M melanoma = system: MALME-3M melanoma
UACC-257 melanoma = system: UACC-257 melanoma
NCI-H23 lung = system: NCI-H23 lung
IGROV1 ovarian = system: IGROV1 ovarian
HT29 colon = system: HT29 colon
SN12C renal = system: SN12C renal
BT-549 breast = system: BT-549 breast
LOX IMVI melanoma = system: LOX IMVI melanoma
SF-268 CNS = system: SF-268 CNS
RXF 393 renal = system: RXF 393 renal
T-47D breast = system: T-47D breast
CCRF-CEM leukemia = system: CCRF-CEM leukemia
MOLT-4 leukemia = system: MOLT-4 leukemia
NCI/ADR-RES ovarian = system: NCI/ADR-RES ovarian
COLO 205 colon = system: COLO 205 colon
PC-3 prostate = system: PC-3 prostate
NCI-H226 lung = system: NCI-H226 lung
SK-MEL-28 melanoma = system: SK-MEL-28 melanoma
ACHN renal = system: ACHN renal
OVCAR-5 ovarian = system: OVCAR-5 ovarian
MDA-MB-435 = system: MDA-MB-435
OVCAR-4 ovarian = system: OVCAR-4 ovarian
KM12 colon = system: KM12 colon
CAKI-1 renal = system: CAKI-1 renal
OVCAR-3 ovarian = system: OVCAR-3 ovarian

Measured: TGI

CN(C)c1nc2nonc2nc1Nc1ccccc1
not listed: MDA-MB-435 | OVCAR-4 ovarian | KM12 colon | CAKI-1 renal | OVCAR-3 ovarian
> 100 µM: all other assays above

COC(=O)[C@@H]1CCc2nc3ccccc3c(=O)n21
not listed: MCF7 breast | SNB-19 CNS | MALME-3M melanoma | RXF 393 renal | PC-3 prostate
> 100 µM: all other assays above
